Columns and labels:
[1] = biological target: HPV16 E749-57 peptide presented by H-2D^b (human papillomavirus type 16; mouse (C57BL/6)) (UniProt P01899)
[2] = biological target: HPV16 E749-57 peptide presented by H-2D^b (human papillomavirus type 16; mouse (C57BL/6)) (UniProt P01899); remark: listed apart in the source
[3] = test system: E749-57-specific CD8 T cells; assay: ex vivo IFN-γ ELISPOT after sc or i.n. immunization with E71-98 + adjuvants; assay type: in vivo, C57BL/6 mice; settings: single 50 μg sc or i.n. dose, no adjuvant; 7 days after immunization
[4] = test system: E749-57-specific CD8 T cells; assay: ex vivo IFN-γ ELISPOT after E7 vaccination followed by ivag immunostimulant; assay type: in vivo, C57BL/6 mice; settings: sc E71-98+CpG and HLT day 1; ivag immunostimulant day 6; analysis day 9
E7-specific CD8 cells = settings: single dose HSp E7+poly IC followed by three consecutive daily doses of Poly IC alone; cited from earlier work

## E7-specific CD8 T cells from C57BL/6 mice vaccinated with E71-98 + adjuvants (PBMC, spleen, lymph no (cells without a defined receptor)
[1]
  ex vivo IFN-γ ELISPOT (E7-specific IFN-γ secreting cells/10^5 cells): 347
[2]
  in vivo cytotoxicity assay (specific lysis of CFSE-labeled peptide-pulsed splenocytes): 80%

## E71-98: complete synthetic E7 polypeptide (residues 1-98) of human papillomavirus type 16
[3]
  E7-specific CD8 T cell responses in PBMC: did not induce detectable E7-specific CD8 T cell responses

## polyriboinosinic:polyribocytidylic acid [pI:C]
[4]
  E7-specific CD8 T cell responses in CV tissue vs ivag PBS: strongly enhanced
E7-specific CD8 cells
  numbers of E7-specific CD8 cells vs single dose of HspE7+poly IC: did not elicit a significant increase

— US20110110979A1, “METHOD AND VACCINE FOR […] SPECIFIC IMMUNE RESPONSES” (Universite De Lausanne, priority 2008, published 2011)
